In publication PMC11606603, “The membrane domains of mammalian adenylyl cyclases are lipid receptors” (eLife, 2024):
Several values for one entry are separate records, joined by “and”; a condition that tells them apart may be missing. Identical values can stand only once.

Assays:
Type in all cases: biochemical
mAC5 = target: T1, mAC5 (Homo sapiens, UniProt O95622); assay: AC assay, Gsα-stimulated mAC5 in membranes from transfected HEK293 cells; conditions: 20µM fatty acid concentration
T1 construct: Human mAC genes were from GenScript and fitted with a C-terminal FLAG-tag; FLAG (C); made in house; host or cells: HEK293, permanently transfected; membrane preparation
Procedure, shortened: (§1)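 cAMP detected with a Cisbio kit, calibrated by a cAMP standard curve each run. Reaction: 1 mM ATP, 2 mM MgCl2, 3 mM creatine phosphate, 60 μg/ml creatine kinase, 50 mM MOPS pH 7.5. Enzyme source: membranes of stably transfected HEK293 (G418-selected) carrying FLAG-tagged human AC.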

mAC8 = target: T2, mAC8 (Homo sapiens, UniProt P40145); assay: AC assay, Gsα-stimulated mAC8 in membranes from transfected HEK293 cells; conditions: 20µM fatty acid concentration
T2 construct: Human mAC genes were from GenScript and fitted with a C-terminal FLAG-tag; FLAG (C); made in house; host or cells: HEK293, permanently transfected; membrane preparation
Procedure: hAC sequences were from NCBI were: ADCY1: NM_021116.3; ADCY2: NM_020546.2; ADCY3: NM_004036.4; ADCY4: NM_001198568.2; ADCY5: NM_183357.2; ADCY6: NM_015270.4; ADCY7: NM_001114.4; ADCY8: NM_001115.2; ADCY9: NM_001116.3. Human mAC genes were from GenScript and fitted with a C-terminal FLAG-tag. […] The gene was synthesized by GenScript. HEK293 cells were maintained in Dulbeccos Modified Eagle Medium (DMEM) with 10% fetal bovine serum at 37°C and 5% CO2. Transfection with AC plasmids was with PolyJet (SignaGen, Frederick, MD, USA). Permanent cell lines were generated by selection for 7 days with 600 µg/ml G418 and maintained with 300 µg/ml For membrane preparation, cells were tyrpsinized, collected by centrifugation (3000 × g, 5 min) and lysed and homogenized in 20 mM HEPES, pH 7.5, 1 mM Ethylenediaminetetraacetic acid (EDTA), 2 mM MgCl2, 1 mM Dithiothreitol (DTT), one tablet of cOmplete, EDTA-free (per 50 ml) and 250 mM sucrose by 20 strokes in a potter homogenizer on ice. Debris was removed (5 min at 1000 × g, 0°C), membranes were collected at 100,000 × g, 60 min at 0°C, suspended and stored at −80°C in 20 mM MOPS, pH 7.5, 0.5 mM EDTA, 2 mM MgCl2. […] Three cerebral cortices were dissected and homogenized in 4.5 ml cold 48 mM Tris–HCl, pH 7.4, 12 mM MgC1_2, and 0.1 mM Ethylene glycol-bis(β-aminoethyl ether)-N,N,N′,N′-tetraacetic acid (EGTA) with a Polytron hand disperser (Kinematica AG, Switzerland). […] The pellet was washed once with 5 ml 1 mM KHCO3. The final suspension in 2 ml 1 mM KHCO3 was stored in aliquots at −80°C.
In a volume of 10 μl, AC activities were measured using 1 mM ATP, 2 mM MgCl2, 3 mM creatine phosphate, 60 μg/ml creatine kinase, and 50 mM MOPS pH 7.5. The cAMP assay kit from Cisbio (Codolet, France) was used for detection according to the supplier’s instructions. For each assay, a cAMP standard curve was established. EC50 and IC50 values were calculated by GraphPad Prism version 8.4.3 for Windows, GraphPad Software, San Diego, CA, USA, https://www.graphpad.com .

mAC9 = target: T3, mAC9 (Homo sapiens, UniProt O60503); assay: AC assay, Gsα-stimulated mAC9 in membranes from transfected HEK293 cells; conditions: for mAC9 activity (%);(100% = Gsα stimulation) stimulated by 300nM Gsα: single experiments
T3 construct: Human mAC genes were from GenScript and fitted with a C-terminal FLAG-tag; FLAG (C); made in house; host or cells: HEK293, permanently transfected; membrane preparation
T3 sequence (O60503 whole entry): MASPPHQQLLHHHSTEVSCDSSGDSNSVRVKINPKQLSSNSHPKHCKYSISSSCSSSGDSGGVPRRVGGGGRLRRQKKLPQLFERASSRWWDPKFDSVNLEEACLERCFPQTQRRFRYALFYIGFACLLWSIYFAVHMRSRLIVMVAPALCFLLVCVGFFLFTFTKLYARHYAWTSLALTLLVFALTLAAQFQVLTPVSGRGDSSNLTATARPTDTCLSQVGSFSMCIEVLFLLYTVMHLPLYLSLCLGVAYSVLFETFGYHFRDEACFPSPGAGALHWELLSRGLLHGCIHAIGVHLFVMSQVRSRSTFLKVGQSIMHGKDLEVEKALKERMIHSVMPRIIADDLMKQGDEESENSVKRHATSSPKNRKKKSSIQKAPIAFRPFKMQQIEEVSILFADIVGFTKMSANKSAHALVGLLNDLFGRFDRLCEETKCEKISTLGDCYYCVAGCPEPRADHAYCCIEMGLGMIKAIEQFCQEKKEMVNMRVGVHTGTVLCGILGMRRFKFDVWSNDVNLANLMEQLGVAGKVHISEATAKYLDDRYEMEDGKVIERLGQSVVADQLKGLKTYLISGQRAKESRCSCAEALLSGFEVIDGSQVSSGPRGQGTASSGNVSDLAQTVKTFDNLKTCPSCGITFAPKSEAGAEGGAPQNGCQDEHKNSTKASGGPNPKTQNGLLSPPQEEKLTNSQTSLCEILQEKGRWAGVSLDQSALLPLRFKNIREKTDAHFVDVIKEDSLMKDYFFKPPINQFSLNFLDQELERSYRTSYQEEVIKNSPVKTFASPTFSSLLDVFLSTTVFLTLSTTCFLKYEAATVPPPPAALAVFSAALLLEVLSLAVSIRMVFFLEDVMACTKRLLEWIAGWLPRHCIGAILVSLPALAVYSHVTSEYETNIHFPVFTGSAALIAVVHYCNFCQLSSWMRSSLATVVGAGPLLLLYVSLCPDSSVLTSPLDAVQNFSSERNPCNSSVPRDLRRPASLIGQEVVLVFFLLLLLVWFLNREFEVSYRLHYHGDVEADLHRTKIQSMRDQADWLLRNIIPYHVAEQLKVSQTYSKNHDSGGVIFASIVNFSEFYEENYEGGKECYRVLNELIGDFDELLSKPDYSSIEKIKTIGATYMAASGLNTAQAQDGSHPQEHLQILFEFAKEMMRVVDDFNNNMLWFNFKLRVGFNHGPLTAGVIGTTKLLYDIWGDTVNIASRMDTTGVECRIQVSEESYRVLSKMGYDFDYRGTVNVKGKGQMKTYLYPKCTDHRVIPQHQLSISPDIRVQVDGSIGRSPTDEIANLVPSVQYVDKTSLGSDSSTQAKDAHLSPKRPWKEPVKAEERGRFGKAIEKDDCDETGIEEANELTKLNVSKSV
T3 sequence (P63092 2-394 Q227L partner): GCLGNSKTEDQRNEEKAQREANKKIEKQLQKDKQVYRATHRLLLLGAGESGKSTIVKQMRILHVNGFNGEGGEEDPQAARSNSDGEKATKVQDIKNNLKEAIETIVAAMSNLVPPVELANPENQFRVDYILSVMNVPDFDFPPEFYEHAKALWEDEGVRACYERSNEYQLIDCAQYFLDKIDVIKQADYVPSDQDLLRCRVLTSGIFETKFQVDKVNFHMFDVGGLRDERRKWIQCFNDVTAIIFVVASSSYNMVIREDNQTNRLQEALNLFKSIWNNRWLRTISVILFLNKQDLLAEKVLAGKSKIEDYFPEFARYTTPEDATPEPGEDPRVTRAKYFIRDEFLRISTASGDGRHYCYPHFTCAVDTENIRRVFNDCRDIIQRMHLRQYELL
Procedure, shortened: as §1

mAC3 = target: T4, mAC3 (Homo sapiens, UniProt O60266); assay: AC assay, Gsα-stimulated mAC3 in membranes from transfected HEK293 cells
T4 construct: Human mAC genes were from GenScript and fitted with a C-terminal FLAG-tag; FLAG (C); made in house; host or cells: HEK293, permanently transfected; membrane preparation
Procedure, shortened: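 cAMP formation was quantified by HTRF against a cAMP standard curve, with EC50 or IC50 derived by curve fitting. Reactions contained 1 mM ATP, 2 mM MgCl2, 3 mM creatine phosphate, 60 μg/ml creatine kinase and 50 mM MOPS pH 7.5, using membranes of stably transfected HEK293 cells carrying FLAG-tagged human AC.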

mAC1 = target: T5, mAC1 (Homo sapiens, UniProt Q08828); assay: AC assay, Gsα-stimulated mAC1 in membranes from transfected HEK293 cells; conditions: 20 µM fatty acid; 300 nM Gsα; single experiments
T5 construct: Human mAC genes were from GenScript and fitted with a C-terminal FLAG-tag; FLAG (C); made in house; host or cells: HEK293, permanently transfected; membrane preparation
T5 sequence (Q08828 whole entry): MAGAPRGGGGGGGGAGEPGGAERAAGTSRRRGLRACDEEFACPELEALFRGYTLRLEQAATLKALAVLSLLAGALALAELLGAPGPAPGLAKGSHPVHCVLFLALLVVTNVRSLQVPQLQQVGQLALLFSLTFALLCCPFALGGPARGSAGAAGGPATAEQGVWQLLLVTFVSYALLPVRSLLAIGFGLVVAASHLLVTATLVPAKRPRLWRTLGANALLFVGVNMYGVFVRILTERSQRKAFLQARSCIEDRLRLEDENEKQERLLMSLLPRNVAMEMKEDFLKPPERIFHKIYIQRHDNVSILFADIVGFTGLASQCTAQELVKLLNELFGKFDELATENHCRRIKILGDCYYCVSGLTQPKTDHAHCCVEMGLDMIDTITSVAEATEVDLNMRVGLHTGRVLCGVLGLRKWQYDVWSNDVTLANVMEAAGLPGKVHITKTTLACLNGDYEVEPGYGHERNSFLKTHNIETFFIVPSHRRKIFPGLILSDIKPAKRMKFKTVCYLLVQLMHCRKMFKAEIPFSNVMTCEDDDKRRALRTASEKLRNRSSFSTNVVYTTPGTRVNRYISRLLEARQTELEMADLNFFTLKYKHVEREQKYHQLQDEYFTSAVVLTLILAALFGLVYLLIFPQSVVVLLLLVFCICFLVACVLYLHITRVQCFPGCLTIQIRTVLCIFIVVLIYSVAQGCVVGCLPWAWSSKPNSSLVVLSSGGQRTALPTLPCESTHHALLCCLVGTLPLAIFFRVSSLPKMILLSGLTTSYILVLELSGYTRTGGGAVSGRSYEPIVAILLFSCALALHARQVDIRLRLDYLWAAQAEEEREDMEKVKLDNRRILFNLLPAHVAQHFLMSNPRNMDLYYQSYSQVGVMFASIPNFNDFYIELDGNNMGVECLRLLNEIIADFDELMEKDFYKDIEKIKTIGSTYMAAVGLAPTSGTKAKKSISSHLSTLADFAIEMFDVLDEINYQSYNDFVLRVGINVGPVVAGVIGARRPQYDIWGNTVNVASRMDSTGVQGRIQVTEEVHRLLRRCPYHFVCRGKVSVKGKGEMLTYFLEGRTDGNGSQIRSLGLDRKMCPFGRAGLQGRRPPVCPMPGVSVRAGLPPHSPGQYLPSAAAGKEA
Procedure, shortened: as §1

mAC6 = target: T6, mAC6 (Homo sapiens, UniProt O43306); assay: AC assay, Gsα-stimulated mAC6 in membranes from transfected HEK293 cells; conditions: 20µM fatty acid concentration
T6 construct: Human mAC genes were from GenScript and fitted with a C-terminal FLAG-tag; FLAG (C); made in house; host or cells: HEK293, permanently transfected; membrane preparation
Procedure, shortened: as §1

mAC2 = target: T7, mAC2 (Homo sapiens, UniProt Q08462); assay: AC assay, Gsα-stimulated mAC2 in membranes from transfected HEK293 cells
T7 construct: Human mAC genes were from GenScript and fitted with a C-terminal FLAG-tag; FLAG (C); made in house; host or cells: HEK293, permanently transfected; membrane preparation
T7 sequence (Q08462 whole entry): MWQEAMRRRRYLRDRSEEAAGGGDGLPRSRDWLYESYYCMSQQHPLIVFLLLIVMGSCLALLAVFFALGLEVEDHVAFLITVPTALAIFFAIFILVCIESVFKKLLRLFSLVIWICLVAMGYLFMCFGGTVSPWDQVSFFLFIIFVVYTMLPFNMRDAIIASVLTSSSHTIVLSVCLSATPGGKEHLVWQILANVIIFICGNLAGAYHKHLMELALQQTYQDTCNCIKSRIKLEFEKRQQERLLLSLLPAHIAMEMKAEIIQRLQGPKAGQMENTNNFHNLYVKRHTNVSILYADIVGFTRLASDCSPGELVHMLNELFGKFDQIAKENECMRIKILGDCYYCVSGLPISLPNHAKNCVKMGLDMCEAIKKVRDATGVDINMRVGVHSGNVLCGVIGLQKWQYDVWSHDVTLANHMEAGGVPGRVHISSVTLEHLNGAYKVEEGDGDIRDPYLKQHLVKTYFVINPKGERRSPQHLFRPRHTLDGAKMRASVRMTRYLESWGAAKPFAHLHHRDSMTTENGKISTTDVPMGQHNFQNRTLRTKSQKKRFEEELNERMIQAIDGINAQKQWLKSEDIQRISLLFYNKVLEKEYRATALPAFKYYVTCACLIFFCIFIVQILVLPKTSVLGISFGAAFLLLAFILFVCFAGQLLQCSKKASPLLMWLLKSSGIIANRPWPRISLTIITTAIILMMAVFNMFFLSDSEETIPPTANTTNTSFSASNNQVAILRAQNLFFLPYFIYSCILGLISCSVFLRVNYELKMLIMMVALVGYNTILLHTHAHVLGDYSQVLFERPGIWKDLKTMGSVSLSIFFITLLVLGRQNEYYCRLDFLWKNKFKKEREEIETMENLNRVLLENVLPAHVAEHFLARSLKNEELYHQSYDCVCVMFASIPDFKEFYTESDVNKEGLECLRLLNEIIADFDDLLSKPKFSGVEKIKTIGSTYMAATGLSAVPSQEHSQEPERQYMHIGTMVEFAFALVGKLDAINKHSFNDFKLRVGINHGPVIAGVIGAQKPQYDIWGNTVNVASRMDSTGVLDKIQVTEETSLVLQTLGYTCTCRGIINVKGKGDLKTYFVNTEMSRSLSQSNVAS
T7 sequence (P63092 2-394 Q227L partner): as the sequence (P63092 2-394 Q227L partner) above
Procedure, shortened: as §1

mAC7 = target: T8, mAC7 (Homo sapiens, UniProt P51828); assay: AC assay, Gsα-stimulated mAC7 in membranes from transfected HEK293 cells; conditions: Figure 5-figure supplement 2 left, 20 µM
T8 construct: Human mAC genes were from GenScript and fitted with a C-terminal FLAG-tag; FLAG (C); made in house; host or cells: HEK293, permanently transfected; membrane preparation
T8 sequence (P51828 whole entry): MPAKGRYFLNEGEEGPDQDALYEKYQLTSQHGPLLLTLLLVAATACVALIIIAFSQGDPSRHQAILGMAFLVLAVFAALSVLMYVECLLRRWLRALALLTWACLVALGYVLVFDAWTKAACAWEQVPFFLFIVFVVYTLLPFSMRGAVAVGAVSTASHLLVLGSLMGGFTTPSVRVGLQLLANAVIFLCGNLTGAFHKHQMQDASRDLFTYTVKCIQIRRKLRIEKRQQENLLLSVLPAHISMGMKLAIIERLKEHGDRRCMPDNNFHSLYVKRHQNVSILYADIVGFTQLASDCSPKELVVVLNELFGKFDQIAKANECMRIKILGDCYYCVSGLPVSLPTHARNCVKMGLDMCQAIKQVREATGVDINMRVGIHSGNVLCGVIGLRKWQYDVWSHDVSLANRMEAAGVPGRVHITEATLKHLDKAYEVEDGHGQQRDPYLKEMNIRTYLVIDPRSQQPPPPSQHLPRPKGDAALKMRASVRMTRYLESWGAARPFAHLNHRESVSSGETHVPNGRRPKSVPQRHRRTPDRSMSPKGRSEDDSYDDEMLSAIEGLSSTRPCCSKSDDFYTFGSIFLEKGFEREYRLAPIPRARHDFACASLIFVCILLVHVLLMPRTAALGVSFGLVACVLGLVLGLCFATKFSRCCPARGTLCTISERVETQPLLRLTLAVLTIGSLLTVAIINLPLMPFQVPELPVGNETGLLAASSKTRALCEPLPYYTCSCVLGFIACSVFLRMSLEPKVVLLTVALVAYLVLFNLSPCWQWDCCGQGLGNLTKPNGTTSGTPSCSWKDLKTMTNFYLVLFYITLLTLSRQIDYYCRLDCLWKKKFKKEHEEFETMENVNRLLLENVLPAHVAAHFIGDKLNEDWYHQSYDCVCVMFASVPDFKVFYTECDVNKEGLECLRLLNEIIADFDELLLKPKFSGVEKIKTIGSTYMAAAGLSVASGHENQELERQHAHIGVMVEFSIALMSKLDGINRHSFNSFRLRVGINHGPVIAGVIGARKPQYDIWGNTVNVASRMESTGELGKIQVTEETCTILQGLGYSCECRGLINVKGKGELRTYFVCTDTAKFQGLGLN
T8 sequence (P63092 2-394 Q227L partner): as the sequence (P63092 2-394 Q227L partner) above
Procedure, shortened: as §1

mAC4 = target: T9, mAC4 (Homo sapiens, UniProt Q8NFM4); assay: AC assay, Gsα-stimulated mAC4 in membranes from transfected HEK293 cells; conditions: 20 µM fatty acid; 300 nM Gsα; single experiments
T9 construct: Human mAC genes were from GenScript and fitted with a C-terminal FLAG-tag; FLAG (C); made in house; host or cells: HEK293, permanently transfected; membrane preparation
T9 sequence (Q8NFM4 1-1077): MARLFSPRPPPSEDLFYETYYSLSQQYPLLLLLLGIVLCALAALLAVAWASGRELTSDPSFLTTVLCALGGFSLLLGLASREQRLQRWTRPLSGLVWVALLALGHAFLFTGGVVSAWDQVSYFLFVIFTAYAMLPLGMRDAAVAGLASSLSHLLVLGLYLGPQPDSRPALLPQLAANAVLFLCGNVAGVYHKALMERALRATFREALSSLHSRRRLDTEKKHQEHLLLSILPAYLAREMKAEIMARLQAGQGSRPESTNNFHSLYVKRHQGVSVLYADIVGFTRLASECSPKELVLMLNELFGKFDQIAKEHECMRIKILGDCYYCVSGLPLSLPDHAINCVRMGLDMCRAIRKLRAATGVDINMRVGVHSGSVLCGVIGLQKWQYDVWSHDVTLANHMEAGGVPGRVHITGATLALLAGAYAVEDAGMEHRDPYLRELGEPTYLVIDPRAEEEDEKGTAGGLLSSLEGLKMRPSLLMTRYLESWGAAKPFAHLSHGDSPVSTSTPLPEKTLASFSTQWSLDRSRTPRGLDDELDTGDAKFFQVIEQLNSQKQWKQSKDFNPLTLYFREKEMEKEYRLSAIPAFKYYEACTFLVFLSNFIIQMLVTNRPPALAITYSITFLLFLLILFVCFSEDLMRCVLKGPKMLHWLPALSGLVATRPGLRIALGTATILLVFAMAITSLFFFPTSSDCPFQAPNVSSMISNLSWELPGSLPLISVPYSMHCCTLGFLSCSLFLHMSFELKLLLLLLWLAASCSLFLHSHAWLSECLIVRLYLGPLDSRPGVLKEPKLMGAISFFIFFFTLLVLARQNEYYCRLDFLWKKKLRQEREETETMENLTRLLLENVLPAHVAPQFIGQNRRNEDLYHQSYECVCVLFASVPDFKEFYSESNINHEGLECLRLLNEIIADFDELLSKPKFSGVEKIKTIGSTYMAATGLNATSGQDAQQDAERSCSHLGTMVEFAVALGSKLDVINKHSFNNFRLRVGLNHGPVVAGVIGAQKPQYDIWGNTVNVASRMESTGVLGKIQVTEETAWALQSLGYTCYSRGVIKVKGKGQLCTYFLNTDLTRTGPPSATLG
Procedure, shortened: as §1

`CCCCCC/C=C\CCCCCCCCCC(=O)O` [cis-Vaccenic acid, cis-Vaccenic ((11E)-octadecenoic) acid] was tested, and the “mAC5 activity [%] (100% = 300nM Gsα stimulation)” value (mAC5) was 124% and 95%, the “mAC8 activity [%] (100% = 300nM Gsα stimulation)” value (mAC8) was 107% and 123% and the “mAC9 activity (%);(100% = Gsα stimulation) stimulated by 300nM Gsα” value (mAC9; 6 µM fatty acid) was 116% and 153% and 119% and 113%. The “mAC9 activity (%);(100% = Gsα stimulation) stimulated by 300nM Gsα” value (mAC9; 8 µM fatty acid) was 174%, the EC50 (mAC9; enhancement of 300 nM Gsα-stimulated activity, read-out: EC50 for mAC9) was 8.5 µM and the “Effect of lipid on 300 nM Gsα-stimulated mAC3” value (mAC3; 20 µM, in words) was “efficient enhancers”. For the same compound, the “mAC3 activity [%] (100% = 300nM Gsα stimulation)” value (mAC3; fatty acid 20 µM, individual experiments) was 429% and 498% and 460% and 363% and 411%, the “mAC1 activity [%] (100% = 300nM Gsα stimulation); 20µM fatty acid concentration” value (mAC1) was 61% and 67% and 86% and the “mAC6 activity [%] (100% = 300nM Gsα stimulation)” value (mAC6) was 91% and 114%. For the same compound, the “Effect of lipid on 300 nM Gsα-stimulated mAC2” value (mAC2; 20 µM, in words) was “doubled”, the “mAC2 activity [%] (100% = 300nM Gsα stimulation); 20µM fatty acid concentration” value (mAC2; Figure 5-figure supplement 1 left, 20 µM) was 243% and 149% and 146% and 170% and 233% and the “mAC2 activity (%);(100% = Gsα stimulation) stimulated by 300nM Gsα” value (mAC2; cis-Vaccenic acid 1 µM) was 120% and 97% and 119% and 112% and 115%. For the same compound, the “mAC2 activity (%);(100% = Gsα stimulation) stimulated by 300nM Gsα” value (mAC2; cis-Vaccenic acid 3 µM) was 117% and 107% and 130% and 128% and 95%, the “mAC2 activity (%);(100% = Gsα stimulation) stimulated by 300nM Gsα” value (mAC2; cis-Vaccenic acid 6 µM) was 93% and 112% and 130% and 120% and 121% and the “mAC2 activity (%);(100% = Gsα stimulation) stimulated by 300nM Gsα” value (mAC2; cis-Vaccenic acid 10 µM) was 141% and 119% and 166% and 123% and 169%. The “mAC2 activity (%);(100% = Gsα stimulation) stimulated by 300nM Gsα” value (mAC2; cis-Vaccenic acid 20 µM) was 146% and 170% and 233% and 243% and 149%, the EC50 (mAC2; enhancement of 300 nM Gsα-stimulated activity) was 10.6 µM and the activity at 0.3 µM (mAC2; read-out: mAC2 activity (%);(100% = Gsα stimulation) stimulated by 300nM Gsα, cis-Vaccenic acid 0.3 µM) was 100%. For the same compound, the “mAC7 activity [%] (100% = 300nM Gsα stimulation); 20µM fatty acid concentration” value (mAC7) was 148% and 179% and the “mAC4 activity [%] (100% = 300nM Gsα stimulation); 20µM fatty acid concentration” value (mAC4) was 78% and 66% and 107%.
